Measured values published in patent US20210283087A1, “METHOD FOR TREATING AND RELIEVING MYOPIA” (China Medical University, priority 2014, published 2021).

Assays:
[1] = system: monocular form deprivation (MFD) Syrian hamster; assay: Refractive power in monocular form deprivation (MFD) hamster model, streak retinoscope; assay type: in vivo, golden Syrian hamsters; conditions: for Refractive power, BL: left eye before MFD / Refractive power, BR: right eye before MFD: baseline; for Refractive power, FL: left eye after MFD / Refractive power, FR: right eye after MFD (occluded eye): 21 days; for Refractive error FR-BR: MFD right eye; for Refractive error FL-BL: non-MFD left eye
Description: (§1) In this study, a total of 160 golden Syrian hamsters aged 3 weeks, weighing 80 to 90 g, and 20 albino guinea pigs, aged 2 to 3 weeks, were used for experiments. All animals were kept in a 12-hour light/dark cycle. All procedures were approved by the Institutional Animal Care and Use Committee of China Medical University and were conducted in accordance with the guidelines of the Use of Animals in Ophthalmic and Vision Research. Hamsters were raised with a right eyelid fusion for 21 days. Myopia was induced in the guinea pigs by covering the right eye with a cloth attached to the skin at a distance of at least 1 cm from the eye. MFD was induced in the right eye (with the left eye serving as a control) of animals randomly assigned to treatment or control groups (n=10 animals each) receiving daily applications of drug or phosphate-buffered saline (PBS), respectively, to both eyes.
The RE (i.e., spherical-component RE, which is defined as the mean RE in horizontal and vertical meridians) was measured using a hand-held streak retinoscope. Animals were anesthetized with 10% ether in O2. Ocular refraction was evaluated at the start and end of the experiment. At the end of the study, animals were sacrificed through CO2 asphyxiation according to the guidelines of the Public Health Service, Office of Laboratory Animal Welfare, National Institutes of Health, and American Association of Veterinary Medicine. Eyes were enucleated using a razor blade on an ice plate under a surgical microscope (Topcon, Tokyo, Japan) by cutting perpendicularly to the anterior-posterior axis approximately 1 mm posterior to the ora serrata. The iris and ciliary body of the anterior segment of the eye were separated. Posterior sclera was excised using a 7-mm-diameter trephine. The axial lengths were determined through A-scan ultrasonography (PacScan 300 Plus, NY, USA). The average of 10 unique measurements was used.

[2] = system: guinea pig with MFD; assay: Refractive power and axial length in guinea pig MFD model; assay type: in vivo, albino guinea pigs; conditions: MFD + 1% atropine; Day 21
Description: as §1
The RE (i.e., spherical-component RE, which is defined as the mean RE in horizontal and vertical meridians) was measured using a hand-held streak retinoscope. Animals were anesthetized with 10% ether in O2. Ocular refraction was evaluated at the start and end of the experiment. […] The axial lengths were determined through A-scan ultrasonography (PacScan 300 Plus, NY, USA). […]

[3] = system: ARPE-19 human retinal pigment epithelial cells; assay: Western blot of LPS-induced signaling in ARPE-19 cells (atropine); assay type: cell-based; conditions: LPS + 100 μM atropine
Description: ARPE-19 human retinal pigment epithelial cells were obtained from the Bioresource Collection and Research Center, HsinChu, Taiwan (BCRC; BCRC-60383). Cells were cultured in DMEM with 10% FBS at 37° C. and 5% CO2, with medium replacement every 3 to 4 days. […] After treatment, 30 μg of total cell lysates was subjected to sodium dodecyl sulfate polyacrylamide gel electrophoresis (SDS-PAGE), followed by immunoblot analysis. Primary antibodies used included ERK (Thr202/Tyr204), AKT (Ser473), PI3K (p85[Tyr458]/p55[Tyr199]), NF-κB (p65, Ser536), and c-Fos (Ser32; Cell Signaling, Beverly, Mass., USA). Antirabbit or antimouse secondary antibody conjugated with horseradish peroxidase was also used. Immunoreactive protein bands were detected using an enhanced chemiluminescence kit (ECL, Pierce, Thermo Fisher Scientific, Pittsburgh, Pa., USA). Equal loading was confirmed through probing the blots with β-actin antibody (Abcam, Cambridge, Mass., USA) as well as anti-ERK, AKT, PI3K, NF-κB, and c-Fos.

[4] = system: MMP2; assay: Gelatin zymography of MMP2 activity in LPS-activated scleral fibroblasts and ARPE-19 cells; assay type: cell-based; conditions: LPS + 100 μM atropine or LPS + 50 μM diacerein; 48 hours
Description: To facilitate subsequent analysis, 1×10^6 cells were seeded in 24-well plates for at least 12 hours. […] To measure the MMP-2/MMP-9 activities, samples were separated using 8% SDS-PAGE containing 0.1% gelatin.

[5] = system: sclera or retina of guinea pig MFD eye; assay: Immunohistochemistry of guinea pig MFD eyes; assay type: in vivo
Description: Eyes were collected from atropine-treated and control animals, embedded in paraffin, and cut at a thickness of 20 μm; subsequently, the sections were placed on glass slides. Antigen retrieval was performed by boiling the slides in citrate buffer (pH 6.0); the sections were then stained with antibodies against IL-6, TNF-α, TGF-β, MMP2, c-Fos, NF-κB, and CHRM1 and 3. The EnVision System peroxidase kit (DAKO, Carpentaria, Calif., USA) was used to visualize immunoreactivity.
We observed a similar increase in inflammatory response in hamsters as we did in a guinea pig model of MFD.

[6] = system: sclera and retina of hamster eyes; assay: Immunohistochemistry of hamster eyes (sclera, retina); assay type: in vivo
Description: Antigen retrieval was performed by boiling the slides in citrate buffer (pH 6.0); the sections were then stained with antibodies against IL-6, TNF-α, TGF-β, MMP2, c-Fos, NF-κB, and CHRM1 and 3. The EnVision System peroxidase kit (DAKO, Carpentaria, Calif., USA) was used to visualize immunoreactivity.

[7] = Atropine 0.125%, listed as atropine
[8] = Atropine 0.5%, listed as atropine
[9] = Atropine 1%, listed as atropine

CN1[C@@H]2CC[C@H]1C[C@@H](OC(=O)C(CO)c1ccccc1)C2 (stereo partly drawn) [Atropine, atropine]
Refractive power, BL: left eye before MFD ([1]; Atropine 0.125% group): 11.85 ± 0.18 D
Refractive power, BR: right eye before MFD ([1]; Atropine 0.125% group): 11.9 ± 0.07 D
Refractive power, FL: left eye after MFD ([1]; Atropine 0.125%): 8.32 ± 0.16 D
Refractive power, FR: right eye after MFD (occluded eye) ([1]; Atropine 0.125%): 6.45 ± 0.1 D
Refractive power, FL: left eye after MFD [1, 7]: 8.32±0.16 D
Refractive power, FR: right eye after MFD (occluded eye) [1, 7]: 6.45±0.1 D
Refractive error FR-BR ([1]; Atropine 0.125%): −5.45 ± 0.07 D
Refractive error FL-BL ([1]; Atropine 0.125%): −3.53 ± 0.28 D
Refractive power, BL: left eye before MFD ([1]; Atropine 0.5% group): 11.69 ± 0.13 D
Refractive power, BR: right eye before MFD ([1]; Atropine 0.5% group): 11.61 ± 0.1 D
Refractive power, FL: left eye after MFD ([1]; Atropine 0.5%): 8.58 ± 0.12 D
Refractive power, FR: right eye after MFD (occluded eye) ([1]; Atropine 0.5%): 6.72 ± 0.11 D
Refractive power, FL: left eye after MFD [1, 8]: 8.58±0.12 D
Refractive power, FR: right eye after MFD (occluded eye) [1, 8]: 6.72±0.11 D
Refractive error FR-BR ([1]; Atropine 0.5%): −4.89 ± 0.18 D
Refractive error FL-BL ([1]; Atropine 0.5%): −3.11 ± 0.19 D
Refractive power, BL: left eye before MFD ([1]; Atropine 1% group): 11.85 ± 0.18 D
Refractive power, BR: right eye before MFD ([1]; Atropine 1% group): 11.79 ± 0.15 D
Refractive power, FL: left eye after MFD ([1]; Atropine 1%): 10.79 ± 0.16 D
Refractive power, FR: right eye after MFD (occluded eye) ([1]; Atropine 1%): 7.06 ± 0.29 D
Refractive power, FL: left eye after MFD [1, 9]: 10.79±0.16 D
Refractive power, FR: right eye after MFD (occluded eye) [1, 9]: 7.06±0.29 D
Refractive error FR-BR ([1]; Atropine 1%): −4.74 ± 0.39 D
Refractive error FL-BL ([1]; Atropine 1%): −1.06 ± 0.22 D
Refractive power, left eye (control eye) [2]: −1.50±0.82 D
Refractive power, right eye (myopic eye) [2]: −6.79±1.00 D
Activation of ERK through LPS and downstream c-FOS [3]: inhibited
LPS activation of PI3K, AKT, and NF-κB [3]: inhibited
MMP2 activities in cells activated by LPS [4]: decreased
MFD downregulation of IL-10 level ([5]; atropine): suppressed
COL1 expression in sclera or retina of the MFD eye ([5]; atropine compared to PBS): increased
MMP2, TGF-β, and c-Fos expression in sclera or retina of the MFD eye ([5]; atropine compared to PBS): reduced
IL-6 and TNF-α immunoreactivity in the retina of MFD eyes ([6]; 1% atropine): reduced
c-Fos and NF-κB expression in the retinas of MFD eyes ([6]; 1% atropine): suppressed
COL1 expression in the sclera of the MFD eye ([6]; 1% atropine compared with PBS): increased
MMP2 expression in the sclera of the MFD eye ([6]; 1% atropine compared with PBS): decreased
MFD upregulation of TGF-β level in retina and sclera ([6]; atropine): suppressed
IL-10 expression ([6]; atropine treatment): elevated
CHRM1 and CHRM 3 expression in MFD eyes ([6]; atropine treatment compared with PBS-treated MFD eyes): downregulated
